Laboratory results as given in article PMC10767396 (Advanced Science, 2023).

Legend:
BV2 cells [1] = test: Immunocytochemistry (ICC) in BV2 cells; assay type: cell-based, murine
Description: ICC was performed following previously published articles.^[ [36] ^] Briefly, BV2 cells were seeded and grown overnight in a LabTek 8‐well chamber wells having ≈100 k cells well^−1. […] Discarded the media after 3 h, washed each well carefully with 150–300 µL of PBS (2x), and fixed with 4% PFA for 20 min at r.t. After that, washed each well again with 150–300 µL of PBS (2x) at r.t and incubated with blocking buffer (5% Donkey serum with 0.1% Triton‐X‐100 in PBS). Aspirate the blocking buffer and add 150 µL of primary antibody in each well and keep it at 4 °C for overnight shaking. Washed with washing buffer (PBS containing 0.1% Triton‐X‐100, 0.05% Tween‐20) twice and incubated with specific secondary antibody in each of the wells with gently shaking for 2 h at r.t. Discarded secondary solution and washed with washing buffer twice and incubated 10 min with 2 nM of Hoechst solution for another 10 min at r.t, washed with PBS (two times) and finally mounted with Prolong Gold antifade reagent, dried at r.t, and covered with a cover slip. Microscopic images were captured with these slides to understand the activity of HDAC6 toward tubulin/microtubule.

BV2 cells [2] = test: Stereomicroscopic images of BV2 cell morphology; assay type: cell-based, murine
Description: Stereomicroscopic images were captured before and after the treatment of different concentrations of PB118 on BV2 cells to elucidate the cytotoxicity based on the cellular morphology of BV2 cells by using Invitrogen EVOS XL Core stereo microscope.

[3] = parameters: method as in PMID 36213537; conditions: human liver microsomes; cited from earlier work
BV2 cells [4] = test: LDH cytotoxicity assay in BV2 cells; assay type: cell-based, murine
Description: (§1) Briefly, for microglia‐related amyloid (Aβ) phagocytosis study, BV2 cells were seeded in a 6‐well confocal dish (400k cells mL^−1) and cultured overnight for ≈90% confluency. […] Then, media were collected to perform the LDH assay for cell cytotoxicity assessment. Cells were washed carefully with PBS (2x) and lysed by adding 200 µL of MPER++ (10 mL MPER with 1% protease cocktail inhibitor and 1% EDTA) in each well. Cell lysates were collected in 1.5 mL Eppendorf tube and centrifuged at 12 000 rpm at 4 °C for 15 min and supernatants were collected for further studies. Total protein was quantified using the BCA protein assay kit (Pierce). Briefly, BV2 cells were cultured following previously published methods and grew in DMEM media containing 10% heat‐inactivated fetal bovine serum, 2 mM L‐Glutamine, and 1% penicillin/streptomycin (Life Technologies). […] Subsequently, media were collected and applied to LDH to assess cell viability; cells were extensively washed with PBS and were lysed in MPER lysis buffer (MPER++) supplemented with EDTA‐free protease inhibitors (Roche), Halt phosphatase inhibitor cocktail (Thermo Fisher Scientific). Lysates were centrifuged as before (12 000 rpm at 4 °C for 15 min) and supernatants were collected for further analysis. […]

46 CNS‐related targets = test system: 46 CNS‐related targets; parameters: method as in PMID 36213537; conditions: cited from earlier work
LPS induced BV2 cells = test: Multiplex MSD-cytokine assay in LPS-induced BV2 cells; assay type: cell-based, murine; conditions: LPS 10 ng/mL + PB118 500/1000 nM, 24 h, media
Description: Briefly, for microglia‐related amyloid (Aβ) phagocytosis study, BV2 cells were seeded in a 6‐well confocal dish (400k cells mL^−1) and cultured overnight for ≈90% confluency. […] Then, media were collected to perform the LDH assay for cell cytotoxicity assessment. Cells were washed carefully with PBS (2x) and lysed by adding 200 µL of MPER++ (10 mL MPER with 1% protease cocktail inhibitor and 1% EDTA) in each well. Cell lysates were collected in 1.5 mL Eppendorf tube and centrifuged at 12 000 rpm at 4 °C for 15 min and supernatants were collected for further studies. Total protein was quantified using the BCA protein assay kit (Pierce). Briefly, BV2 cells were cultured following previously published methods and grew in DMEM media containing 10% heat‐inactivated fetal bovine serum, 2 mM L‐Glutamine, and 1% penicillin/streptomycin (Life Technologies). […] Subsequently, media were collected and applied to LDH to assess cell viability; cells were extensively washed with PBS and were lysed in MPER lysis buffer (MPER++) supplemented with EDTA‐free protease inhibitors (Roche), Halt phosphatase inhibitor cocktail (Thermo Fisher Scientific). Lysates were centrifuged as before (12 000 rpm at 4 °C for 15 min) and supernatants were collected for further analysis.
(§2) MSD immunoassays are quite robust and based on combining multiarray technology and electrochemiluminescence to identify numerous proteins in a single sample.

BV2 cells [5] = test: Western blot of PB118-treated BV2 cell lysates; assay type: cell-based, murine; conditions: PB118 500 and 1000 nM, 6 h
Description: The previously described WB method was implemented to perform and analyze western blot membrane.^[ [34] ^] […] Proteins were separated by the electrophoresis using the 4–12% Bis‐Tris SDS‐PAGE Gel System (Invitrogen, Thermo Fisher Scientific), followed by membrane transfer to PVDF membranes (Invitrogen, Thermo Fischer scientific). Next, the membranes were blocked for 30 min with the Superblock (Thermo Scientific) and then incubated overnight with primary antibodies following the dilutions mentioned below. The membranes were then washed with TBST (four times) and incubated with appropriate secondary antibodies (1:10 000 dilution) at room temperature for 2 h. Then, membranes were incubated with Supersignal West Femto (Life Technologies), and the images for immunoreactivity were developed and visualized by the LICOR Odyssey Fc. Quantifications of proteins of interest were performed by Image J software.

[6] = test system: 3D human neural stem cell model of AD (ReNcell VM); test: LDH assay in 3D human neural culture; assay type: cell-based; conditions: PB118 1 or 5 µM, 3 weeks
Description: Human precursor ReN cells were used to prepare 3D AD environment following previous work.^[ [30] ^] Briefly, for 3D layers of cells, BD Matrigel stock solution (BD Biosciences) was diluted with ReN cell differentiation medium (in 1:15 dilution) (chilled) followed by vertexing with the cell pellets for 20 s. A final cell concentration of ≈2 × 10^6 cells mL^−1 was used and this cell/ Matrigel mixtures were immediately transferred ([…] in each) into an Optilux clear bottom 96‐well plates (BD Biosciences). A thin layer ([…]) of 3D gels was formed at the bottom of the plates after incubating the plates at 37 °C for 1 h and the media were changed. For differentiation before drug treatment, 3D‐plated cells were cultured for 6 weeks, and the media were changed every 3–4 days. […] The cells were harvested for extraction using a lysis buffer mixture (Lysis 6 buffer with protease inhibitor; 1:100), followed by shaking for 1 h at cold room and centrifugation at 2 k rpm for 30 min. Supernatants were collected and further analyzed by MSD immunoassay kit and western blot analysis. The previously reported CytoTox‐ONE assay was performed to analyze cell viability by measuring the release of lactate dehydrogenase (LDH) following the manufacturer's guidelines (Promega; Madison, WI). Briefly, 50 µL of cell culture media was utilized and a 1:1 dilution of substrate was added. […]

[7] = test system: human microglia HMC3 cells; test: LDH assay and stereomicroscopy in HMC3 cells; assay type: cell-based; conditions: PB118 500 and 1000 nM, 6 h
Description: The previously reported CytoTox‐ONE assay was performed to analyze cell viability by measuring the release of lactate dehydrogenase (LDH) following the manufacturer's guidelines (Promega; Madison, WI). Briefly, 50 µL of cell culture media was utilized and a 1:1 dilution of substrate was added. […] Under the influence of the assay's substrate, resazurin was converted to resorufin, its fluorescent form, owing to LDH. The fluorometric results were used to compare the experiment group to the control group to assess the cytotoxicity of treated compounds.

BV2 cells [8] = test: Cold depolymerization assay; assay type: cell-based, murine; conditions: PB118 500 nM 24 h, on ice 10 and 20 min in comparison to 0 min
Description: To perform this assay, BV2 cells were seeded and cultured in an 8‐well Labtek chamber slide for overnight (100 k well^−1). […] Then cells were incubated on ice to induce microtubule depolymerization and were fixed using 4% PFA at different time points (0, 10, and 20 min). After that, cells were washed with PBS three times and blocked with blocking buffer (5% Donkey serum with 0.1% Triton‐X‐100 in PBS) and immunostaining was performed with these fixed cells against α‐tubulin (green) and acetylated α‐tubulin (red) antibodies. Appropriate secondary antibodies were used for visualization of these cells and images were captured in a Nikon C2 confocal microscopy.

[9] = Stability in human serum (HPLC); assay type: in vitro ADME; conditions: 37 °C
[10] = parameters: method as in PMID 36213537; conditions: C57BL/6 mice, i.p. 1 mg kg^-1, blood and brain at 30 min, 1 and 4 h; cited from earlier work
HDAC6 enzyme = conditions: read-out: IC50 for HDAC6; enzyme inhibition assay; cited from earlier work
[11] = test system: 3D human neural stem cell model of AD (ReNcell VM); test: MSD phospho (Thr231)/total tau and Aβ (6E10) assay in 3D-AD culture; assay type: cell-based; conditions: 3 weeks
Description: Human precursor ReN cells were used to prepare 3D AD environment following previous work.^[ [30] ^] Briefly, for 3D layers of cells, BD Matrigel stock solution (BD Biosciences) was diluted with ReN cell differentiation medium (in 1:15 dilution) (chilled) followed by vertexing with the cell pellets for 20 s. A final cell concentration of ≈2 × 10^6 cells mL^−1 was used and this cell/ Matrigel mixtures were immediately transferred ([…] in each) into an Optilux clear bottom 96‐well plates (BD Biosciences). A thin layer ([…]) of 3D gels was formed at the bottom of the plates after incubating the plates at 37 °C for 1 h and the media were changed. For differentiation before drug treatment, 3D‐plated cells were cultured for 6 weeks, and the media were changed every 3–4 days. […] The cells were harvested for extraction using a lysis buffer mixture (Lysis 6 buffer with protease inhibitor; 1:100), followed by shaking for 1 h at cold room and centrifugation at 2 k rpm for 30 min. Supernatants were collected and further analyzed by MSD immunoassay kit and western blot analysis.
as §2

[12] = parameters: method as in PMID 36213537; conditions: cited from earlier work
BV2 cells [13] = test: Microglial Aβ phagocytosis, MSD Aβ peptide panel 1 (4G8); assay type: cell-based, murine; conditions: Aβ42 2 µg/mL + PB118 500 and 1000 nM, 6 h, vs control
Description: as §1

HDAC1 = conditions: read-out: IC50 for HDAC1; enzyme inhibition assay; cited from earlier work
[14] = higher concentration of PB118 (1 or 5 µM tested)

For `O=C(NO)c1ccc(CN2CCCCc3ccccc32)c(F)c1` [PB118], the “HDAC6 expression (ICC)” value (BV2 cells [1]; LPS 10 ng/mL + PB118 500 nM) was “lack of significant change”, the “α-tubulin network (ICC)” value (BV2 cells [1]; LPS 10 ng/mL + PB118 500 nM) was “lack of significant change” and the “acetylated tubulin levels (ICC) with or without LPS” value (BV2 cells [1]; PB118 500 nM with or without LPS 10 ng/mL) was “no change”. The “acetyl α-tubulin expression (ICC)” value (BV2 cells [1]; PB118 500 nM, 3 h, vs vehicle) was “higher compared to vehicle”, the “cell morphology (stereomicroscopic images)” value (BV2 cells [2]; LPS +/- PB118, 24 h) was “no significant difference of cell morphology” and the “cell morphology (microscopic images before and after treatment)” value (BV2 cells [2]; PB118 with or without Aβ42, 6 h) was “no significant change in cell morphology”. For the same compound, the “half-life in human microsomal liver” value [3] was 1.13 h, the “cell viability (LDH assay)” value (BV2 cells [4]; LPS 10 ng/mL +/- PB118 500 or 1000 nM, 24 h, treated vs control) was “No significant difference” and the “cytotoxicity (LDH assay)” value (BV2 cells [4]; PB118 500 and 1000 nM with or without Aβ42 (2 µg/mL), 6 h) was “no significant cytotoxicity”. For the same compound, the off-target binding profile (46 CNS‐related targets) was “good off‐target binding profile”, the IL-12p-70 level (LPS induced BV2 cells) was “significant reductions” and the “KC/GRO (CXCL1) level” value (LPS induced BV2 cells) was “significant reductions”. For the same compound, the “interleukin-6 (IL-6) level” value (LPS induced BV2 cells) was “significant reductions”, the “HDAC6 expression (WB, normalized to β-actin)” value (BV2 cells [5]) was “non‐significant change” and the “Ac-α-tubulin protein level (WB, normalized to α-tubulin)” value (BV2 cells [5]; vs control) was “significant increase”. The “cytotoxicity (LDH assay)” value [6] was “no cytotoxicity”, the “morphology and cytotoxicity (stereomicroscopy, LDH assay)” value [7] was “no detrimental change in morphology or cytotoxicity” and the “acetylated α-tubulin protein expression in cold depolymerization condition” value (BV2 cells [8]) was “significantly higher”. For the same compound, the decay constant in human serum [9] was 6.3e-06 s⁻¹, the “mean lifetime in human serum” value [9] was 43.6 h and the “compound remaining in human serum” value ([9]; after 24 h, HPLC) was “≈ 57%”. For the same compound, the “half-life (t1/2) in human serum” value ([9]; calculated by formula of Figure S2b) was 30.2 h, the half-life at 5 mM ([9]; human, calculated by formula of Figure S2b, read-out: half-life (t1/2) in human serum (converted)) was about 30.2 h and the “BBB crossing (brain/plasma study)” value [10] was “BBB crossing ability”. The IC50 (HDAC6 enzyme) was 0.0056 µM, the Aβ42 generation ([11]; PB118 1 or 5 µM) was “significantly reduced” and the “p-tau (Thr231) level” value [11, 14] was “significantly reduced”. For the same compound, the total tau level [11, 14] was “significantly reduced”, the “binding with human plasma” value [12] was 99.4% and the “Aβ42 levels in cell lysates (phagocytosis)” value (BV2 cells [13]) was “significant increase”. The IC50 (HDAC1) was 7.82 µM.
